Like-named read-outs stand apart in the source and are kept apart here.
Tests used:
Chk1 = biological target: T1, Chk1 (Homo sapiens, UniProt O14757); experiment: biochemical; conditions: ADP-Glo; read-out: Chk1 in vitro enzyme activity (grade)
T1 construct: purchased BPS 40039
T1 sequence (O14757 1-476): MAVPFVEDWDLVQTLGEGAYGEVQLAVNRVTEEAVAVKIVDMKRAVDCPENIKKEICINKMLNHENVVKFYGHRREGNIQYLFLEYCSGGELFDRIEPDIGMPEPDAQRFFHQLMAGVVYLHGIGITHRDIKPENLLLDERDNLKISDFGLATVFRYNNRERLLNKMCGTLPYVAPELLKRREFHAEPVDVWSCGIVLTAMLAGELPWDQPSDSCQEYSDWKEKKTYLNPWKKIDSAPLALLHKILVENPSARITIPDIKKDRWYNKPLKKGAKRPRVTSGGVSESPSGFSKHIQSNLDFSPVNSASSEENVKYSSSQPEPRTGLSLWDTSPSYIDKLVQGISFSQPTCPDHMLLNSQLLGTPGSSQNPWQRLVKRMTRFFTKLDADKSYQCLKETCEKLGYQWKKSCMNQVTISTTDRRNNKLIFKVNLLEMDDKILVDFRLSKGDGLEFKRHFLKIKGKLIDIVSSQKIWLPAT

Chk2 = biological target: T2, Chk2 (Homo sapiens, UniProt O96017); experiment: biochemical; conditions: ADP-Glo; read-out: Chk2 in vitro enzyme activity (grade)
T2 construct: purchased Carna 02-162

HT-29 = experiment: Cancer cell growth inhibition assay (CellTiter-Glo), HT-29; assay type: cell-based, Human; conditions: Homo sapiens, HT-29; 72 hours, cellular ATP content; read-out: HT-29 anti cell proliferation activity (grade)
Method: (§1) Human cancer cell lines were purchased from American Type Culture Collection (Manassas, Va.). The trypsinized cells were diluted to required volume at densities of 44,000 cells/ml. 90 ul cell slurry was dispensed per well in 96-well flat-bottomed plates with the recommended culture medium. The cells were incubated for 24 hours at 37° C. in 5% CO2 under humidified condition. The cells were then incubated with compounds at various concentrations for 72 hours in culture medium supplemented with 0.5% (v/v) FBS. Growth inhibition was assessed by assay of cellular ATP content using CellTiter-Glo reagent to each well. Luminesce was read on Envision. The inhibition rate (%)=(Max signal compound signal)/(Max signal Min signal)×100.

MDA-MB-231 = experiment: Cancer cell growth inhibition assay (CellTiter-Glo), MDA-MB-231; assay type: cell-based, Human; conditions: Homo sapiens, MDA-MB-231; 72 hours, cellular ATP content; read-out: MDA-MB-231 anti cell proliferation activity (grade)
Method: as §1

[1] = Pharmacokinetics study in rats, intravenous; assay type: in vivo, SD rats; conditions: rat, IV; for AUC(0-inf) / AUC(0-t) / clearance / MRT / half-life / Vd: male, SD, plasma, 10 mg/kg; for AUC(0-inf): read-out: AUC0-inf; for AUC(0-t): read-out: AUC0-t; for clearance: read-out: CL (converted); for MRT: read-out: MRT; for half-life: read-out: t½ (converted); for Vd: iv; for half-life and exposure compared with LY2606368: 10 mg/kg (LY2606368 5 mg/kg)
Method: Compounds were formulated in 30% SEB-β-CD (Zhiyuan Bio-technology) with 1 molar equivalents of HCl (pH adjusted to 3-5). Male SD rats (280-350 g) were purchased from Medical Laboratory Animal Center of Guangdong. Three rats were used for each PK study. […] At various time points after compound administration, approximately 0.2˜0.3 mL of blood was collected by cutting the end of tail into tubes containing K2-EDTA. The plasma was separated via centrifugation and stored at −80° C. A PE Sciex API-3000 LC-MS/MS system (Applied Biosystems, Inc.) was used to analyze compound concentrations in plasma.
PK studies of ChK1 inhibitors were conducted in rats after intravenous administration at 10 mg/kg. […]. […]

[2] = Human liver S9 metabolic stability; assay type: in vitro ADME; conditions: for Percentage Remaining %: 1 μM, 37° C.; for metabolic stability compared with LY2606368: human liver S9; for half-life at 1 μM: human liver S9, 1 μM
Method: Compounds (1 μM) were incubated with human liver S9 (from BD Gentest) at final liver microsomal protein concentration of 0.5 mg/mL for 0, 5, 15, 30, 45 min at 37° C. The remaining compounds in the reaction were measured by LC-MS/MS. The half-life (T½) 0.693/K (K is the rate constant from a plot of ln [concentration] vs. incubation time).

T2 sequence (O96017 whole entry): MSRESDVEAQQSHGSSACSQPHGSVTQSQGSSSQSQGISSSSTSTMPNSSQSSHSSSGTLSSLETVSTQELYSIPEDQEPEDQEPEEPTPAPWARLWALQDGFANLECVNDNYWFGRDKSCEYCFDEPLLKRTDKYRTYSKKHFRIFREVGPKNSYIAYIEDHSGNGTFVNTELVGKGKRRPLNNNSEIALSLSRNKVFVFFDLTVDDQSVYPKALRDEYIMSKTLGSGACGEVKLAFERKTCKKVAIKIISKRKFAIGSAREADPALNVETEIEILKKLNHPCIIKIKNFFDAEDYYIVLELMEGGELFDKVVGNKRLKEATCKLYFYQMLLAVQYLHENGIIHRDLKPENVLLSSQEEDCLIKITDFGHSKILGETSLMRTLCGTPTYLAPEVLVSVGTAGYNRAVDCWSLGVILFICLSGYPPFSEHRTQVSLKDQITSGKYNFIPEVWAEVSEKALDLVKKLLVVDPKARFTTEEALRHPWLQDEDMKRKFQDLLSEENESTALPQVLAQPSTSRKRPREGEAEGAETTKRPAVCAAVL

IC50 (Chk1) [nM]	IC50 (Chk2) [nM]	IC50 (HT-29) [nM]	IC50 (MDA-MB-231) [nM]	melting point [°C]	Compound	further results
1 to 10	10 to 50	≤ 10	10 to 50	160 to 164	COc1cc(OC)c(-c2cc(Nc3cnc(C#N)cn3)n[nH]2)c(OCC2(CN)CC2)c1 [Compound 17, 5-(5-(2-((1-(Aminomethyl)cyclopropyl)methoxy)-4,6-dimethoxyphenyl)-1H-pyrazol-3-ylamino)pyrazine-2-carbonitrile]	
≤ 1	10 to 50	10 to 50	10 to 50	232 to 236	COc1cc(Cl)cc(OCC2(CN)CC2)c1-c1cc(Nc2cnc(C#N)cn2)n[nH]1 [Compound 14, 5-(5-(2-((1-(Aminomethyl)cyclopropyl)methoxy)-4-chloro-6-methoxyphenyl)-1H-pyrazol-3-ylamino)pyrazine-2-carbonitrile]	AUC(0-inf) [1]: 3120 ng·h/mL; AUC(0-t) [1]: 3100 ng·h/mL; clearance [1]: 56.7 mL/min/kg; MRT [1]: 4.1 h; half-life [1]: 4 h; Vd ([1]; read-out: Vd): 19.2 L/kg; Vd ([1]; read-out: Vss): 13.9 L/kg; half-life and exposure compared with LY2606368 [1]: longer half-life and higher exposure than LY2606368
1 to 10		50 to 100	100 to 500	215 to 219	CNCC1(COc2ccc(F)c(OC)c2-c2cc(Nc3cnc(C#N)cn3)n[nH]2)CC1 [Compound 19, 5-((5-(3-fluoro-2-methoxy-6-((1-((methylamino)methyl)cyclopropyl)methoxy)phenyl)-1H-pyrazol-3-yl)amino)pyrazine-2-carbonitrile]	
≤ 1	10 to 50	10 to 50	10 to 50		COc1cc(Br)cc(OCC2(CN)CC2)c1-c1cc(Nc2cnc(C#N)cn2)n[nH]1 [Compound 15, 5-(5-(2-((1-(Aminomethyl)cyclopropyl)methoxy)-4-bromo-6-methoxyphenyl)-1H-pyrazol-3-ylamino)pyrazine-2-carbonitrile]	AUC(0-inf) [1]: 4980 ng·h/mL; AUC(0-t) [1]: 4890 ng·h/mL; clearance [1]: 63.3 mL/min/kg; MRT [1]: 3.8 h; half-life [1]: 7.4 h; Vd ([1]; read-out: Vd): 46.9 L/kg; Vd ([1]; read-out: Vss): 19.2 L/kg; half-life and exposure compared with LY2606368 [1]: longer half-life and higher exposure than LY2606368; Percentage Remaining % ([2]; 0 min): 100.00%; Percentage Remaining % ([2]; 5 min): 94.64%; Percentage Remaining % ([2]; 15 min): 93.89%; Percentage Remaining % ([2]; 30 min): 93.30%; Percentage Remaining % ([2]; 45 min): 87.68%; metabolic stability compared with LY2606368 [2]: more metabolic stable than LY2606368; half-life at 1 μM [2]: 7.99 h
1 to 10				213 to 215	CNCC1(COc2c(F)ccc(OC)c2-c2cc(Nc3cnc(C#N)cn3)n[nH]2)CC1 [Compound 18, 5-(5-(3-fluoro-6-methoxy-2-((1-((methylamino)methyl)cyclopropyl)methoxy)phenyl)-1H-pyrazol-3-ylamino)pyrazine-2-carbonitrile]	
≤ 1		≤ 10	10 to 50	228 to 230	CNCC1(COc2cc(F)cc(OC)c2-c2cc(Nc3cnc(C#N)cn3)n[nH]2)CC1 [Compound 20, 5-(5-(4-Fluoro-2-methoxy-6-((1-((methylamino)methyl)cyclopropyl)methoxy)phenyl)-1H-pyrazol-3-ylamino)pyrazine-2-carbonitrile]	
≤ 1		100 to 500	100 to 500	80 to 84	COc1c(F)ccc(OCCCN)c1-c1cc(Nc2cnc(C#N)cn2)n[nH]1 [Compound 2, 5-((5-(6-(3-aminopropoxy)-3-fluoro-2-methoxyphenyl)-1H-pyrazol-3-yl)amino)pyrazine-2-carbonitrile]	
≤ 1	10 to 50	≤ 10	10 to 50	202 to 206	COc1cc(F)cc(OCC2(CN)CC2)c1-c1cc(Nc2cnc(C#N)cn2)n[nH]1 [Compound 13, 5-(5-(2-((1-(Aminomethyl)cyclopropyl)methoxy)-4-fluoro-6-methoxyphenyl)-1H-pyrazol-3-ylamino)pyrazine-2-carbonitrile]	Percentage Remaining % ([2]; 0 min): 100.00%; Percentage Remaining % ([2]; 5 min): 98.69%; Percentage Remaining % ([2]; 15 min): 99.08%; Percentage Remaining % ([2]; 30 min): 96.23%; Percentage Remaining % ([2]; 45 min): 100.18%; metabolic stability compared with LY2606368 [2]: more metabolic stable than LY2606368; half-life at 1 μM [2]: 5 h
10 to 50					CCOC(=O)NCCCOc1cc(F)cc(OC)c1-c1cc(Nc2cnc(C#N)cn2)n[nH]1 [Compound 38, Ethyl 3-(2-(3-(5-cyanopyrazin-2-ylamino)-1H-pyrazol-5-yl)-5-fluoro-3-methoxyphenoxy)propylcarbamate]	
1 to 10		100 to 500	100 to 500	221 to 224	COc1ccc(F)c(OCCCN)c1-c1cc(Nc2cnc(C#N)cn2)n[nH]1 [Compound 1, 5-(5-(2-(3-Aminopropoxy)-3-fluoro-6-methoxyphenyl)-1H-pyrazol-3-ylamino)pyrazine-2-carbonitrile]	
≤ 1	50 to 100	10 to 50	10 to 50	188 to 191	COc1cc(C)cc(OCCCN)c1-c1cc(Nc2cnc(C#N)cn2)n[nH]1 [Compound 6, 5-(5-(2-(3-aminopropoxy)-6-methoxy-4-methylphenyl)-1H-pyrazol-3-ylamino)pyrazine-2-carbonitrile]	
≤ 1	50 to 100	10 to 50	50 to 100	165 to 175	COc1cc(Br)cc(OCCCN)c1-c1cc(Nc2cnc(C#N)cn2)n[nH]1 [Compound 5, 5-(5-(2-(3-Aminopropoxy)-4-bromo-6-methoxyphenyl)-1H-pyrazol-3-ylamino)pyrazine-2-carbonitrile]	AUC(0-inf) [1]: 2990 ng·h/mL; AUC(0-t) [1]: 2960 ng·h/mL; clearance [1]: 60 mL/min/kg; MRT [1]: 2.8 h; half-life [1]: 5.3 h; Vd ([1]; read-out: Vd): 29.5 L/kg; Vd ([1]; read-out: Vss): 10.2 L/kg; half-life and exposure compared with LY2606368 [1]: longer half-life and higher exposure than LY2606368
1 to 10	10 to 50	10 to 50	10 to 50	145 to 151	COc1cc(OC)c(-c2cc(Nc3cnc(C#N)cn3)n[nH]2)c(OCCCN)c1 [Compound 7, 5-(5-(2-(3-Aminopropoxy)-4,6-dimethoxyphenyl)-1H-pyrazol-3-ylamino)pyrazine-2-carbonitrile]	
≤ 1	10 to 50	≤ 10	10 to 50	165 to 170	COc1cc(C)cc(OCC2(CN)CC2)c1-c1cc(Nc2cnc(C#N)cn2)n[nH]1 [Compound 16, 5-(5-(2-((1-(Aminomethyl)cyclopropyl)methoxy)-6-methoxy-4-methylphenyl)-1H-pyrazol-3-ylamino)pyrazine-2-carbonitrile]	

From US11116767B2, “3,5-disubstituted pyrazoles useful as checkpoint kinase 1 (Chk1) inhibitors, and their preparations and applications” (PHARMAENGINE, INC., priority 2016, dated 2021)
